Read-outs that look alike come from different tables or passages of the source.
Tests used:
MDA-MB-231 cells = assay: Cell viability assay (PrestoBlue); type: cell-based; details: Homo sapiens, MDA-MB-231, 120 h, read-out: Antiproliferative activity (EC50) MDA-MB-231; cell viability at day 5
MCF7 cells = assay: Cell viability assay (PrestoBlue); type: cell-based; details: Homo sapiens, MCF7, 120 h; cell viability at day 5; read-out: Antiproliferative activity (EC50) MCF7
LCK = LCK (Homo sapiens (Human), UniProt P06239); assay: Kinase screening assay (IC50)
Chain of LCK (P06239 whole entry): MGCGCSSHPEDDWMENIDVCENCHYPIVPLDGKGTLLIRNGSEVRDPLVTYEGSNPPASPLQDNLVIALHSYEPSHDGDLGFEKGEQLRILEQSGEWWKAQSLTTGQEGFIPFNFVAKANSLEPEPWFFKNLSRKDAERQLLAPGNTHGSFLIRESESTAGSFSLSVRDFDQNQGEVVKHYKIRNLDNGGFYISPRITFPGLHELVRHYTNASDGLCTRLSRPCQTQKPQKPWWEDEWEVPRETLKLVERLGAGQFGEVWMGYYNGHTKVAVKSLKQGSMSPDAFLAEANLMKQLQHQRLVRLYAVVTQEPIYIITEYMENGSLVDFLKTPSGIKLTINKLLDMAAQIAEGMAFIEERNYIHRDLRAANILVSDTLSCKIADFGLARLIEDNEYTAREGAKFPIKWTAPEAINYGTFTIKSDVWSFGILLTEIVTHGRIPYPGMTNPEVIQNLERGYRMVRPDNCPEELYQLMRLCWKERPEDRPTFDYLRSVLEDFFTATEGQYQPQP

LYN = LYN (Homo sapiens (Human), UniProt P07948); assay: Kinase screening assay (IC50); details: read-out: Target inhibition (IC50) LYN; 10 μM ATP
mTOR = mTOR (Homo sapiens (Human), UniProt P42345); assay: Kinase screening assay (IC50); type: biochemical; details: 10 μM ATP; read-out: Target inhibition (IC50) mTOR
FRK/PTK5 = FRK/PTK5 (Homo sapiens (Human), UniProt P42685); assay: Kinase screening assay (IC50); details: read-out: Target inhibition (IC50) FRK/PTK5; 10 μM ATP
Chain of FRK/PTK5 (P42685 whole entry): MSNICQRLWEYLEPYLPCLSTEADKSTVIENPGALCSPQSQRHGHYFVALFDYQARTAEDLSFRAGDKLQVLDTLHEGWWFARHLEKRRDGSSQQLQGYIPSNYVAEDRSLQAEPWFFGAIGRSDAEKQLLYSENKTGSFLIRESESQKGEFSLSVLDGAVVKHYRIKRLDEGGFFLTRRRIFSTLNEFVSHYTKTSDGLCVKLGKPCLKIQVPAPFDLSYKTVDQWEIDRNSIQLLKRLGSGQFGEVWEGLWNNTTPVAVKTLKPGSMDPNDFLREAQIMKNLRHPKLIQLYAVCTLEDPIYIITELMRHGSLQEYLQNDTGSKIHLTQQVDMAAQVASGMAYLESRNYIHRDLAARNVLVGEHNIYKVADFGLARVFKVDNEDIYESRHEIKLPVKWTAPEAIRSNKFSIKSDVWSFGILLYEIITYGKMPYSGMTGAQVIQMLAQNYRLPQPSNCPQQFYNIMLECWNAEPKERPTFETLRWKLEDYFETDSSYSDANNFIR

BLK = BLK (Homo sapiens (Human), UniProt P51451); assay: Kinase screening assay (IC50); details: read-out: Target inhibition (IC50) BLK; 10 μM ATP
Chain of BLK (P51451 whole entry): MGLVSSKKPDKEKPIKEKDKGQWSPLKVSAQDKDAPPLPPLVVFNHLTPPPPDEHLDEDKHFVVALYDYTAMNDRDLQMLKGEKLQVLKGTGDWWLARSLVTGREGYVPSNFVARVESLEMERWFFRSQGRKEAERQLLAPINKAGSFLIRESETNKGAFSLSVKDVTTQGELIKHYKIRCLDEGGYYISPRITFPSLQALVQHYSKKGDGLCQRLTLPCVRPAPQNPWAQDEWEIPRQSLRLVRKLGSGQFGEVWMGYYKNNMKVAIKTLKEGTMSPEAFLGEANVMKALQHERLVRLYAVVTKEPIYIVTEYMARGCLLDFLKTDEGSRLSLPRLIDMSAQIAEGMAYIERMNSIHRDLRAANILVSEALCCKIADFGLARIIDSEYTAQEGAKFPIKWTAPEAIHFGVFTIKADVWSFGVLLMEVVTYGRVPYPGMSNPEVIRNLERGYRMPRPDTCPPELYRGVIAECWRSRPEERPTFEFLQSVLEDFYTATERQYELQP

KIT = KIT (Homo sapiens (Human), UniProt P10721); assay: Kinase screening assay (IC50); details: read-out: Target inhibition (IC50) KIT; 10 μM ATP
Chain of KIT (P10721 26-976): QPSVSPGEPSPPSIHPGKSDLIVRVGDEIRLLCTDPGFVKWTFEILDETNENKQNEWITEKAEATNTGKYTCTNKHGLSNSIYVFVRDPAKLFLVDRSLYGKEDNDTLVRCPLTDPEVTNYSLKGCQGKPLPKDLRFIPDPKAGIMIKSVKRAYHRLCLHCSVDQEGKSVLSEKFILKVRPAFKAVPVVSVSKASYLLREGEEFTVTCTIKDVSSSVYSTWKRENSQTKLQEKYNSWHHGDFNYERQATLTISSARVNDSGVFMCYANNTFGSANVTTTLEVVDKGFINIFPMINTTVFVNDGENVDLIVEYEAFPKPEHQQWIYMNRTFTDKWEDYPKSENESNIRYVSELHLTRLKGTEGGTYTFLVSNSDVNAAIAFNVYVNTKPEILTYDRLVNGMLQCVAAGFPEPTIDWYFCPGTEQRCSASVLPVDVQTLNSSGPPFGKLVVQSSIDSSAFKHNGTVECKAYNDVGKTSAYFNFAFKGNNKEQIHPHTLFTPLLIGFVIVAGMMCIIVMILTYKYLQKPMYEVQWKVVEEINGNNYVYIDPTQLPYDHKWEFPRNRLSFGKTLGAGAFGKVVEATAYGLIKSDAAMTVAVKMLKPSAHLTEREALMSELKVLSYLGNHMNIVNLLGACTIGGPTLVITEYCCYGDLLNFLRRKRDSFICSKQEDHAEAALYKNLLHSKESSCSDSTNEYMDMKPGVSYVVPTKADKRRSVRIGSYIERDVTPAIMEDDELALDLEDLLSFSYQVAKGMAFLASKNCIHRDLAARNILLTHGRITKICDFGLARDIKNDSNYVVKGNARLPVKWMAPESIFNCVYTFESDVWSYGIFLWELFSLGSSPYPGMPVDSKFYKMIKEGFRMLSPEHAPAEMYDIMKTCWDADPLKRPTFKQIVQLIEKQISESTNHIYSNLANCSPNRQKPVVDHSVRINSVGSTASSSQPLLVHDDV

PDGFRa = PDGFRa (Homo sapiens (Human), UniProt P16234); assay: Kinase screening assay (IC50); type: biochemical; details: 10 μM ATP; read-out: Target inhibition (IC50) PDGFRa
Chain of PDGFRa (P16234 24-1089): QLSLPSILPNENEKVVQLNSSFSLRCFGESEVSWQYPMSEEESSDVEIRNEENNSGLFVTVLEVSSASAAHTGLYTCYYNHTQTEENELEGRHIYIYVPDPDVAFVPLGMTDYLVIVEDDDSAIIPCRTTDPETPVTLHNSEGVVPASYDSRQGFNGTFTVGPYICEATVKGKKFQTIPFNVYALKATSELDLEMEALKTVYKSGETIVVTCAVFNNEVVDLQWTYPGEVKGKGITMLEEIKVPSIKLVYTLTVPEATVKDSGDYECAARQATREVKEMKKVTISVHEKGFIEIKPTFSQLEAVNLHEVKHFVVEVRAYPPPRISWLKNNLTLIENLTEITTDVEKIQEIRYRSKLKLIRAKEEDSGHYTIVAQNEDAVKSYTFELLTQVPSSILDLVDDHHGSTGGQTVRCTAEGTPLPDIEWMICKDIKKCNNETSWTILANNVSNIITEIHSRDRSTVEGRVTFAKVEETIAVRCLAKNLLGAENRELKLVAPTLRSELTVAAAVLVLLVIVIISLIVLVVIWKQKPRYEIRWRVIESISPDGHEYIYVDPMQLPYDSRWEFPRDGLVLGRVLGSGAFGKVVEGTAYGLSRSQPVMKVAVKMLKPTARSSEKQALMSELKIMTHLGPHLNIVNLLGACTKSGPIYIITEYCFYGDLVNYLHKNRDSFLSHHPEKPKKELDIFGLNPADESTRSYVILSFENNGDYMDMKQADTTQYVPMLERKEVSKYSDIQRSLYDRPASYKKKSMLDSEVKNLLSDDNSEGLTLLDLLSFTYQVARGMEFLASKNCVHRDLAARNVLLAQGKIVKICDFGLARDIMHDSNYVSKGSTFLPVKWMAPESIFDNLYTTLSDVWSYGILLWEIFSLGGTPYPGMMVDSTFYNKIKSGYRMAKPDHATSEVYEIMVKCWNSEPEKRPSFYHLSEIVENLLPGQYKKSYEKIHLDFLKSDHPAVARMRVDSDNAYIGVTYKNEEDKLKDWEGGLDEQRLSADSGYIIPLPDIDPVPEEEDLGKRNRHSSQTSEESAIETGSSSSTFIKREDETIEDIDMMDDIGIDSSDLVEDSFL

HCK = HCK (Homo sapiens (Human), UniProt P08631); assay: Kinase screening assay (IC50); details: read-out: Target inhibition (IC50) HCK; 10 μM ATP
Chain of HCK (P08631 whole entry): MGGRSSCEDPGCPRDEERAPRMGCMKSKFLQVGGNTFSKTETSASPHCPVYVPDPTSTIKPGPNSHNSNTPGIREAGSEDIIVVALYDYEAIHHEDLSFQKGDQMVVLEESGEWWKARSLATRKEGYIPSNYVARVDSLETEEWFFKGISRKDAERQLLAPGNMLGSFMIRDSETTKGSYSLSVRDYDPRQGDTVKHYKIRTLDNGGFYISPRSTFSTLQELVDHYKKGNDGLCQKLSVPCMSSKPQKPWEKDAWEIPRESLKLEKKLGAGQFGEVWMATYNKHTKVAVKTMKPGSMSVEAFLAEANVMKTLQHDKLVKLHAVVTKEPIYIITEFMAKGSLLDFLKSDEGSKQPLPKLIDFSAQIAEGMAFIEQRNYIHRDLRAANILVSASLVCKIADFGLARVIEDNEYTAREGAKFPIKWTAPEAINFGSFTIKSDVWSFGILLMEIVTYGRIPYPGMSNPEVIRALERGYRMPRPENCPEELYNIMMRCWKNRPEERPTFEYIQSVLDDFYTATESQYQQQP

RET = RET (Homo sapiens (Human), UniProt P07949); assay: Kinase screening assay (IC50); details: read-out: Target inhibition (IC50) RET; 10 μM ATP
[1] = system: SYF fibroblasts (deficient for Src, Yes, and Fyn); assay: Cell viability assay (PrestoBlue); type: cell-based, murine; details: Mus musculus, Fibroblast, 120 h; cell viability at day 5; read-out: Antiproliferative activity (EC50) SYF (−/− Src)
ABL = ABL (Homo sapiens (Human), UniProt P00519); assay: Kinase screening assay (IC50); type: biochemical; details: 10 μM ATP; read-out: Target inhibition (IC50) ABL
FGR = FGR (Homo sapiens (Human), UniProt P09769); assay: Kinase screening assay (IC50)
Chain of FGR (P09769 whole entry): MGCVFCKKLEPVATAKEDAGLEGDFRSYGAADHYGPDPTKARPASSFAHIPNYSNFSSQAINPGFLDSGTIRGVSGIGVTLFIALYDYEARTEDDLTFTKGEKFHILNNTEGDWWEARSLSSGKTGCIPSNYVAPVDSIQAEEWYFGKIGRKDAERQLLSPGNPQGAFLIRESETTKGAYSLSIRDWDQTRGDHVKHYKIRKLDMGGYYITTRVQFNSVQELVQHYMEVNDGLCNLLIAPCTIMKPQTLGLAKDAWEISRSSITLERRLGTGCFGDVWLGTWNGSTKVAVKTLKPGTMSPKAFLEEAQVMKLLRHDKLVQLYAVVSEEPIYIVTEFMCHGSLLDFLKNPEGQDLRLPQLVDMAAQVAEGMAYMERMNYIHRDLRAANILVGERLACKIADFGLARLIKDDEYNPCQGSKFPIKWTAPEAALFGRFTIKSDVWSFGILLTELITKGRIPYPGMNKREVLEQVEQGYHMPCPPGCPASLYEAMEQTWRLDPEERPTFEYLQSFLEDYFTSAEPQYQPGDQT

[2] = read-out: Target inhibition (IC50) LCK, 10 μM ATP

SMILES	EC50 (MDA-MB-231 cells) [µM]	EC50 (MCF7 cells) [µM]	IC50 (mTOR) [nM]	IC50 (KIT) [nM]	IC50 (PDGFRa) [nM]	other results
COc1ccc(-c2nn(CCN3CCC(N(C)C)CC3)c3ncnc(N)c23)cc1NC(=O)OC(C)(C)C [Compound 559, tert-butyl N-[5-[4-amino-1-[2-[4-(dimethylamino)-1-piperidyl]ethyl]pyrazolo[3,4-d]pyrimidin-3-yl]-2-methoxy-phenyl]carbamate]	> 10	> 10	–	–	–	–
COc1cc(-c2nn(CCN3CCC(OC)CC3)c3ncnc(N)c23)ccc1NC(=O)OC(C)(C)C [Compound 593, tert-butyl N-[4-[4-amino-1-[2-(4-methoxy-1-piperidyl)ethyl]pyrazolo[3,4-d]pyrimidin-3-yl]-2-methoxy-phenyl]carbamate]	1 to 10	–	–	–	–	–
CN(C)CC1CCN(CCn2nc(I)c3c(N)ncnc32)CC1 [Compound 232, 1-[2-[4 (dimethylaminomethyl)-1-piperidyl]ethyl]-3-iodo-pyrazolo[3,4-d]pyrimidin-4-amine]	–	> 10	–	–	–	–
Cc1ccc(-c2nn(CCN3CCC(CN(C)C)CC3)c3ncnc(N)c23)cc1 [Compound 112, 1-[2-[4-(dimethylaminomethyl)-1-piperidyl]ethyl]-3-(p-tolyl)pyrazolo[3,4-d]pyrimidin-4-amine]	–	–	> 1000	> 1000	> 1000	IC50 (LCK; [2]): > 1000 nM; IC50 (LYN): > 1000 nM; IC50 (FRK/PTK5): > 1000 nM; IC50 (BLK): > 1000 nM; IC50 (HCK): > 1000 nM; IC50 (RET): > 1000 nM
COc1cc(-c2nn(CCN3CCC(N(C)C)CC3)c3ncnc(N)c23)ccc1NC(=O)Cc1ccccc1 [Compound 530, N-[4-[4-amino-1-[2-[4-(dimethylamino)-1-piperidyl]ethyl]pyrazolo[3,4-d]pyrimidin-3-yl]-2-methoxy-phenyl]-2-phenyl-acetamide]	> 10	> 10	–	–	–	EC50 [1]: > 10 µM
COc1cc(-c2nn(CCN3CCC(N(C)C)CC3)c3ncnc(N)c23)ccc1N [Compound 532, 3-(4-amino-3-methoxy-phenyl)-1-[2-[4-(dimethylamino)-1-piperidyl]ethyl]pyrazolo[3,4-d]pyrimidin-4-amine]	1 to 10	1 to 10	–	–	–	EC50 [1]: > 10 µM
CN(C)CC1CCN(CCn2nc(C#Cc3ccccc3)c3c(N)ncnc32)CC1 [Compound 230, 1-[2-[4-(dimethylaminomethyl)-1-piperidyl]ethyl]-3-(2-phenylethynyl)pyrazolo[3,4-d]pyrimidin-4-amine]	–	> 10	–	–	–	–
CN(C)CC1CCN(CCn2nc(-c3ccc4ncccc4c3)c3c(N)ncnc32)CC1 [Compound 223, 1-[2-[4-(dimethylaminomethyl)-1-piperidyl]ethyl]-3-(6-quinolyl)pyrazolo[3,4-d]pyrimidin-4-amine]	–	> 10	–	–	–	–
Cc1ccc(-c2nn(CCN3CCN(C)CC3)c3ncnc(N)c23)cc1 [Compound 103]	–	–	> 1000	> 1000	> 1000	IC50 (LCK; [2]): > 1000 nM; IC50 (LYN): > 1000 nM; IC50 (FRK/PTK5): > 1000 nM; IC50 (BLK): > 1000 nM; IC50 (ABL): > 1000 nM; IC50 (HCK): > 1000 nM; IC50 (RET): > 1000 nM
COc1cc(-c2nn(CCN3CCCC(N(C)C)C3)c3ncnc(N)c23)ccc1NC(=O)OC(C)(C)C (stereo not shown) [Compound 5-103, tert-butyl N-[4-[4-amino-1-[2-[3-(dimethylamino)-1-piperidyl]ethyl]pyrazolo[3,4-d]pyrimidin-3-yl]-2-methoxy-phenyl]carbamate]	1 to 10	–	–	–	–	–
CN(C)C1CCN(CCn2nc(-c3cnc4[nH]ccc4c3)c3c(N)ncnc32)CC1 [Compound 402, 1-[2-[4-(dimethylamino)-1-piperidyl]ethyl]-3-(1H-pyrrolo[2,3-b]pyridin-5-yl)pyrazolo[3,4-d]pyrimidin-4-amine]	–	–	> 1000	> 1000	> 1000	IC50 (HCK): > 1000 nM
Cc1ccc(-c2nn(CCN3CCN(CCN(C)C)CC3)c3ncnc(N)c23)cc1 [Compound 105, 1-[2-[4-(2-dimethylaminoethyl)piperazin-1-yl]ethyl]-3-(p-tolyl)pyrazolo[3,4-d]pyrimidin-4-amine]	–	–	> 1000	> 1000	> 1000	IC50 (LCK; [2]): > 1000 nM; IC50 (FRK/PTK5): > 1000 nM; IC50 (BLK): > 1000 nM; IC50 (ABL): > 1000 nM; IC50 (HCK): > 1000 nM; IC50 (RET): > 1000 nM
COc1cc(-c2nn(CCN3CCC(N(C)C)CC3)c3ncnc(N)c23)ccc1NC(=O)CC(C)(C)C [Compound 526, N-[4-[4-amino-1-[2-[4-(dimethylamino)-1-piperidyl]ethyl]pyrazolo[3,4-d]pyrimidin-3-yl]-2-methoxy-phenyl]-3,3-demethyl-butanamide]	–	–	> 1000	> 1000	> 1000	IC50 (LCK): 10 to 100 nM; IC50 (FGR): 10 to 100 nM; IC50 (FRK/PTK5): > 1000 nM; IC50 (ABL): > 1000 nM; IC50 (RET): > 1000 nM
CN(C)C1CCN(CCn2nc(-c3ccc(NC(=O)OC(C)(C)C)nc3)c3c(N)ncnc32)CC1 [Compound 549, tert-butyl N-[5-[4-amino-1-[2-[4-(dimethylamino)-1-piperidyl]ethyl]pyrazolo[3,4-d]pyrimidin-3-yl]-2-pyridyl]carbamate]	> 10	> 10	–	–	–	–
COc1cc(-c2nn(CCN3CCC(N(C)C)CC3)c3ncnc(N)c23)ccc1NC(=O)NC(C)(C)C [Compound 540, 1-[4-[4-amino-1-[2-[4-(dimethylamino)-1-piperidyl]ethyl]pyrazolo[3,4-d]pyrimidin-3-yl]-2-methoxy-phenyl]-3-tert-butyl-urea]	–	–	> 1000	> 1000	> 1000	IC50 (LCK): 10 to 100 nM; IC50 (FGR): 10 to 100 nM; IC50 (FRK/PTK5): > 1000 nM; IC50 (RET): > 1000 nM
COc1cc(-c2ccn(CCN3CCC(N(C)C)CC3)n2)ccc1NC(=O)OC(C)(C)C [Compound 597, tert-butyl N-[4-[1-[2-[4-(dimethylamino)-1-piperidyl]ethyl]pyrazol-3-yl]-2-methoxy-phenyl]carbamate]	> 10	–	–	–	–	–
COc1cc(-c2nn(CCN3CCC(N(C)C)CC3)c3ncnc(N)c23)ccc1NC(=O)CCc1ccccc1 [Compound 531, N-[4-[4-amino-1-[2-[4-(dimethylamino)-1-piperidyl]ethyl]pyrazolo[3,4-d]pyrimidin-3-yl]-2-methoxy-phenyl]-3-phenyl-propanamide]	> 10	1 to 10	–	–	–	EC50 [1]: > 10 µM
CN(C)C1CCN(CCn2nc(-c3ccc(CC#N)cc3)c3c(N)ncnc32)CC1 [Compound 5-100, 2-[4-[4-amino-1-[2-[4-(dimethylamino)-1-piperidyl]ethyl]pyrazolo[3,4-d]pyrimidin-3-yl]phenyl]acetonitrile]	> 10	–	–	–	–	–
CN(C)CC1CCN(CCn2nc(-c3cccc(O)c3)c3c(N)ncnc32)CC1 [Compound 225, 3-[4-amino-1-[2-[4-(dimethylaminomethyl)-1-piperidyl]ethyl]pyrazolo[3,4-d]pyrimidin-3-yl]phenol]	–	> 10	–	–	–	–
Cc1ccc(-c2nn(CCN3CCC(CCN(C)C)CC3)c3ncnc(N)c23)cc1 [Compound 113, 1-[2-[4-(2-dimethylaminoethyl)-1-piperidyl]ethyl]-3-(p-tolyl)pyrazolo[3,4-d]pyrimidin-4-amine]	–	–	> 1000	> 1000	> 1000	IC50 (LCK; [2]): > 1000 nM; IC50 (FGR): 100 to 1000 nM; IC50 (LYN): > 1000 nM; IC50 (FRK/PTK5): > 1000 nM; IC50 (HCK): > 1000 nM; IC50 (RET): > 1000 nM
CN(C)CC1CCN(CCn2nc(-c3cnc4[nH]ccc4c3)c3c(N)ncnc32)CC1 [Compound 221, 1-[2-[4-(dimethylaminomethyl)-1-piperidyl]ethyl]-3-(1H-pyrrolo[2,3-b]pyridin-5-yl)pyrazolo[3,4-d]pyrimidin-4-amine]	–	–	> 1000	> 1000	> 1000	–
CN(C)CC1CCN(CCn2nc(-c3ccoc3)c3c(N)ncnc32)CC1 [Compound 226, 1-[2-[4-(dimethylaminomethyl)-1-piperidyl]ethyl]-3-(3-furyl)pyrazolo[3,4-d]pyrimidin-4-amine]	–	> 10	–	–	–	–
COc1ccc(-c2nn(CCN3CCC(CN(C)C)CC3)c3ncnc(N)c23)cc1OC [Compound 224, 3-(3,4-dimethoxyphenyl)-1-[2-[4-(dimethylaminomethyl)-1-piperidyl]ethyl]pyrazolo[3,4-d]pyrimidin-4-amine]	–	> 10	–	–	–	–

— patent publication US10294227B2, “Compounds” (UNIVERSITY COURT OF THE UNIVERSITY OF EDINBURGH, priority 2015, dated 2019)
